Data reported in paper PMC4376459, “CXCR3 antagonist VUF10085 binds to an intrahelical site distinct from that of the broad spectrum antagonist TAK-779” (British Journal of Pharmacology, 2015).
Substitutions are numbered along the chain they refer to.

Columns and labels:
[1] = target: T1, CXCR3 H202A (ECL2) (Homo sapiens, UniProt P49682, H202A); test: Chemotaxis assay, L1.2 transfectants migrating to CXCL11; format: cell-based
T1 construct: expressed in transfected cells; host or cells: murine pre-B cell line L1.2, transient transfection
T1 sequence (P49682 1-368 H202A): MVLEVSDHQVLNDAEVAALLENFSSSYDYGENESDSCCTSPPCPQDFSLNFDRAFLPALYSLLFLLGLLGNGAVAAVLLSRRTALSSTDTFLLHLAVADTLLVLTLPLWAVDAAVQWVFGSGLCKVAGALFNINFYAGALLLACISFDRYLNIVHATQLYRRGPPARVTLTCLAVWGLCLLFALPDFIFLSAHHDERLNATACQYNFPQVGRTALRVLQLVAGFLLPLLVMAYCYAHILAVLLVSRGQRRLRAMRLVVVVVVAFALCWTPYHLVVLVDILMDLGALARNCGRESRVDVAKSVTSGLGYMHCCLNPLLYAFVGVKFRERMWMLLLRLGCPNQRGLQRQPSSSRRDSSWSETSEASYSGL

[2] = target: T2, CXCR3 Y60A (Homo sapiens, UniProt P49682, Y60A); test: as above; format: cell-based
T2 construct: expressed in transfected cells; host or cells: murine pre-B cell line L1.2, transient transfection
T2 sequence (P49682 1-368 Y60A): T1 sequence (P49682 1-368 H202A) with Y60A, A202H

[3] = target: T3, WT CXCR3 (Homo sapiens, UniProt P49682); test: as above; format: cell-based
T3 construct: expressed in transfected cells; host or cells: murine pre-B cell line L1.2, transient transfection by electroporation
T3 sequence (P49682 1-368): T1 sequence (P49682 1-368 H202A) with A202H

[4] = target: T4, CXCR3 F131A (Homo sapiens, UniProt P49682, F131A); test: as above; format: cell-based
T4 construct: expressed in transfected cells; host or cells: murine pre-B cell line L1.2, transient transfection
T4 sequence (P49682 1-368 F131A): T1 sequence (P49682 1-368 H202A) with F131A, A202H

[5] = target: T5, CXCR3 I279A (Homo sapiens, UniProt P49682, I279A); test: as above; format: cell-based
T5 construct: expressed in transfected cells; host or cells: murine pre-B cell line L1.2, transient transfection
T5 sequence (P49682 1-368 I279A): T1 sequence (P49682 1-368 H202A) with A202H, I279A

[6] = tested on: six 'loss of charge' CXCR3 mutants; test: Chemotaxis assay, panel of charged extracellular residue mutants; format: cell-based, human; conditions: 30 nM CXCL11, 100 μM TAK-779, versus WT
Protocol: Assays of chemotactic responsiveness were carried out as previously described (Vaidehi et al., [2009]) using 96-well ChemoTx® plates with 5 μm pores (Neuroprobe, Gaithersburg, MD, USA). Migrating cells were detected by the use of CellTiter Glo® Dye (Promega, Southampton, UK) and resulting luminescence measured using a TopCount scintillation counter (PerkinElmer, Waltham, MA, USA). Basal migration of cells to buffer alone was subtracted from the resulting data, with individual results expressed as a percentage of the total cells applied to the filter. In all experiments, each data point was assayed in duplicate. In every experiment, cells transiently expressing WT CXCR3 were used as a positive control.
We have previously used an alternative panel of six ‘loss of charge’ CXCR3 mutants to determine the counterion for a negatively charged small molecule CXCR3 agonist (Nedjai et al., [2011]). Although these acidic residues lay outside our initially molecular modelling of the TAK-779:CXCR3 interaction, we tested the hypothesis that one or more of these acidic residues may contribute to TAK-779 binding. […]
Figure 6 Mutation of charged extracellular residues has no effect upon the ability of TAK-779 to inhibit chemotaxis in response to CXCL11. Migration of a panel of CXCR3 transfectants to 30 nM CXCL11 in the presence of 100 μM TAK-779 was determined.

[7] = 30 nM CXCL11, read-out: IC50 chemotaxis (mean ± SEM)

Compound | % of WT chemotaxis to 30 nM CXCL11 (mean ± SEM) ([1]; H202A) | % of WT chemotaxis to 30 nM CXCL11 (mean ± SEM) [2] | optimum concentration of bell-shaped chemotaxis response ([3]; WT CXCR3) | % of WT chemotaxis to 30 nM CXCL11 (mean ± SEM) ([3]; WT CXCR3, 30 nM CXCL11) | % of WT chemotaxis to 30 nM CXCL11 (mean ± SEM) [4] | % of WT chemotaxis to 30 nM CXCL11 (mean ± SEM) [5] | IC50 ([1]; H202A (ECL2), 30 nM CXCL11, read-out: IC50 chemotaxis (mean ± SEM)) | increase in IC50 value, chemotaxis ([1]; H202A versus WT, 30 nM CXCL11) | IC50 [2, 7] | IC50 ([3]; WT CXCR3, 30 nM CXCL11, read-out: IC50 chemotaxis (mean ± SEM)) | IC50 [4, 7] | ability to inhibit migration to CXCL11 [6] | IC50 [5, 7]
CXCL11: recombinant human chemokine, CXCR3 agonist, purchased from PeproTech | 66.0 ± 34.8% | 55.4 ± 16.4% | 30 nM | 100 ± 4.32% | 53.7 ± 5.6% | 51.3 ± 6.2% | – | – | – | – | – | – | –
Cc1ccc(-c2ccc3c(c2)C=C(C(=O)Nc2ccc(C[N+](C)(C)C4CCOCC4)cc2)CCC3)cc1.[Cl-] [TAK-779, N,N-dimethyl-N-[4-[[[2-(4-methylphenyl)-6,7-dihydro-5H-benzocyclohepten-8-yl]-carbonyl]amino]benzyl] tetrahydro-2H-pyran-4-aminium chloride] | – | – | – | – | – | – | 32.7 ± 14 µM | twofold | 10.2 ± 4.62 µM | 15.8 ± 3.1 µM | 15 ± 6.98 µM | not reduced | 10.5 ± 3.35 µM
